The source of these data is publication PMC5572114, “Guanidine N-methylation by BlsL Is Dependent on Acylation of Beta-amine Arginine in the Biosynthesis of Blasticidin S” (Frontiers in Microbiology, 2017).

The target in this experiment is T1, BlsL (Streptomyces griseochromogenes, UniProt Q841K2).
T1 construct: gene J2Z21_009042; full length, His-tagged, pET28a NdeI/EcoRI, E. coli BL21(DE3); gene from cluster plasmid pJTU1780; primers encode N-terminus MEQSTGA, C-terminus CFYKD
Kind of experiment: SAM released from boiled purified BlsL; HPLC and MS/MS. In kind it is binding. As to conditions: co-purified endogenous ligand; methyl donor.

T1 sequence (Q841K2 1-213): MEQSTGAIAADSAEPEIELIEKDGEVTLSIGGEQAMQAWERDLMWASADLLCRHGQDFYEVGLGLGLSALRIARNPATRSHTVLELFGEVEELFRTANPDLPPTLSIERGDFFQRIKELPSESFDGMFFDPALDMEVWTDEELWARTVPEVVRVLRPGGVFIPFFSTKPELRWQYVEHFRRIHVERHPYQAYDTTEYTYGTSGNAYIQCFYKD

`C[S+](CC[C@H](N)C(=O)O)C[C@H]1O[C@@H](n2cnc3c(N)ncnc32)[C@H](O)[C@@H]1O` (stereo partly shown) [SAM]: the “SAM released from boiled purified BlsL; HPLC and MS/MS” value is “Association of SAM with BlsL was confirmed by HPLC as well as MS/MS fragmentation”.
